Measured values published in patent US20250114345A1, “COMPOUNDS AND COMPOSITIONS AS CBP/P300 DEGRADERS AND USES THEREOF” (Oncopia Therapeutics, Inc. d/b/a/ SK Life Science Labs, priority 2023, published 2025).

Biological target: T1, p300 (Homo sapiens, UniProt Q09472)
T1 construct: host or cells: A549 P300 HiBit cells
Experiment: P300 degradation, HiBit technology in A549 P300 HiBit cells (2 h)
Assay type: cell-based
Conditions: 2 hrs post treatment; for Dmax: A549, A549 P300 HiBit cells; for DC50: A549 P300 HiBit cells
Experimental: p300 and CBP degradation potency and Dmax were determined using in cell western (ICW) assay technology in H1299 cells or HiBit technology in A549 HiBit cells.
A549 P300 HiBit and A549 CBP HiBit cells were plated in separate 384-well, TC treated, white-opaque, flat-bottomed microplate. Cells were plated at a cell density of 0.2×10^4 cells per well in assay media comprised of F-12K, 10% heat inactivated FBS, and 1% penicillin/streptomycin. Assay microplates containing HiBit cells were placed in a 37° C., 5% CO2, tissue culture incubator and left to equilibrate overnight. The next day cells were treated with serial dilutions of test compound made up of 10 mM stock solutions in DMSO. 384-Well plates containing treated cells were then placed back into a 37° C., 5% CO2, tissue culture incubator. Assay microplates containing A549 P300 HiBit cells were incubated for 2 hrs post treatment before P300 destruction was assessed, while microplates containing A549 CBP HiBit cells were incubated for 24 hrs post treatment before CBP destruction was determined. On the day of each assay time point, microplates were removed from the tissue culture incubator and prepared HiBit Lytic detection buffer (Promega, cat #N3O40) was added to each plate. Plates were covered with aluminum foil and incubated for ten minutes at room temperature on an orbital shaker. After incubation, luminescent signal of each plate was measured using the Envision instrument (Perkin Elmer).

T1 sequence (Q09472 whole entry): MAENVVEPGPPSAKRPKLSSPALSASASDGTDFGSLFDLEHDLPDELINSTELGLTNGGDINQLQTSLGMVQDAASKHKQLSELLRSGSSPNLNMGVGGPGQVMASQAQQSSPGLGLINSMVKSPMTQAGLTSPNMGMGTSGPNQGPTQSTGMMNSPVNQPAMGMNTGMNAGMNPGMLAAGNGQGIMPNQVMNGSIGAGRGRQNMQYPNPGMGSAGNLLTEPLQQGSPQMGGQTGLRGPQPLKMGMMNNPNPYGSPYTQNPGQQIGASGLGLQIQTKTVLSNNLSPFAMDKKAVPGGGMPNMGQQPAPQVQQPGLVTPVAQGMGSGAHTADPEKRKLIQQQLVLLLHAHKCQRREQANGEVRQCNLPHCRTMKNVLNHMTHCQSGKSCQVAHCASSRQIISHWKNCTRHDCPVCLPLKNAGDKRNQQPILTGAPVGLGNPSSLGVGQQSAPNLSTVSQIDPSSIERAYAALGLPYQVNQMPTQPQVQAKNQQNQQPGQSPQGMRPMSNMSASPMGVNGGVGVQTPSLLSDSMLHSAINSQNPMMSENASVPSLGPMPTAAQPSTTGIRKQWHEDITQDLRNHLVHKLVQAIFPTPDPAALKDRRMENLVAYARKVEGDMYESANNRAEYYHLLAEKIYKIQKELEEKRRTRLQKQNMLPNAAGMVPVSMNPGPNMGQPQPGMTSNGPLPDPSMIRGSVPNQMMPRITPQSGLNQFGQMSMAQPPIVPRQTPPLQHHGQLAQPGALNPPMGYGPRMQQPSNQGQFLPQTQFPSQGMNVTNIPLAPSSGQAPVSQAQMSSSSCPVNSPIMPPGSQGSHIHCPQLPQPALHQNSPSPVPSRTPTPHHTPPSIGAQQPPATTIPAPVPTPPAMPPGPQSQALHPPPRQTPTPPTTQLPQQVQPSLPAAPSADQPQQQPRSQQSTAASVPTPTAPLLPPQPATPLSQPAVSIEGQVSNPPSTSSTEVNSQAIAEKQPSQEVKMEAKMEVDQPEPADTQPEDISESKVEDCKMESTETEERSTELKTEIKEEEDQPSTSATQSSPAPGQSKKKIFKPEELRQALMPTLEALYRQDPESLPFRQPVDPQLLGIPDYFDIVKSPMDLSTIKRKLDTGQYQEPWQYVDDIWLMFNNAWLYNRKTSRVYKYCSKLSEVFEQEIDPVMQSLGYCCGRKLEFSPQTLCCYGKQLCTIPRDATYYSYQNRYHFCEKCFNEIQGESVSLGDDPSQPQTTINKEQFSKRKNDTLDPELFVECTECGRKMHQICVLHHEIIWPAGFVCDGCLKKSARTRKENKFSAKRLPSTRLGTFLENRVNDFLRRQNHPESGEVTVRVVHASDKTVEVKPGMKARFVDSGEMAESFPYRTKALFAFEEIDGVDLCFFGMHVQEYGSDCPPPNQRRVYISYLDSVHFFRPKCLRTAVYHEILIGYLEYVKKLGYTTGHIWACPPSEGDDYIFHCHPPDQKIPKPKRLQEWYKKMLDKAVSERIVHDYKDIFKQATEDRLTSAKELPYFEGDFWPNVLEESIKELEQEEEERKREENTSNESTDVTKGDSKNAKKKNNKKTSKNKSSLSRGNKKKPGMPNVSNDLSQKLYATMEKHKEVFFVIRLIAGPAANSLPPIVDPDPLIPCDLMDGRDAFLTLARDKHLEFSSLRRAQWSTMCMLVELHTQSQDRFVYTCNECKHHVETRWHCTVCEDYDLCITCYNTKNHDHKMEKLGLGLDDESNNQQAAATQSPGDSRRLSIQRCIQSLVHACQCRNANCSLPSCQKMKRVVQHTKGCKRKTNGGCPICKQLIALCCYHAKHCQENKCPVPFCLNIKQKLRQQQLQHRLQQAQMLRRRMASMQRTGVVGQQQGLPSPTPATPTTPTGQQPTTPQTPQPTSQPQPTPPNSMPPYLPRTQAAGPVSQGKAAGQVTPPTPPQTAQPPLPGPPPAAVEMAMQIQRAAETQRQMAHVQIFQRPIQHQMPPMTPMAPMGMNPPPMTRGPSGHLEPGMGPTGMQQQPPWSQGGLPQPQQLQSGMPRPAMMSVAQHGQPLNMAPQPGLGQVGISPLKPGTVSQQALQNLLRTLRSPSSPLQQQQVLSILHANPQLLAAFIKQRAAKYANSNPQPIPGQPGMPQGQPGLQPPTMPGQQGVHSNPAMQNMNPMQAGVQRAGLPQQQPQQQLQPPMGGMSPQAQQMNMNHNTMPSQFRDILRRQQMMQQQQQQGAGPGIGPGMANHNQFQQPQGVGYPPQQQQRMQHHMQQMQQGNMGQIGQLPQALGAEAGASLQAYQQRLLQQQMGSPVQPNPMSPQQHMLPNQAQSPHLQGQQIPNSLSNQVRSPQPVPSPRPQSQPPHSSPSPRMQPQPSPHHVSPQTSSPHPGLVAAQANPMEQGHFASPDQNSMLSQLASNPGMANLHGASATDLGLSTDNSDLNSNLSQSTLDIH

Row | Dmax [%] | DC50 [nM] | SMILES
1 | < 20 | > 1000 | CC(C)c1cc(-c2cccc3cc(-c4ccc(C(=O)NCc5ccc(-c6cnn(C7CCC(=O)NC7=O)c6)cc5)nc4)ncc23)cc2c1n(C)c(=O)n2C (stereo not drawn) [Example A33, N-(4-(1-(2,6-Dioxopiperidin-3-yl)-1H-pyrazol-4-yl)benzyl)-5-(8-(7-isopropyl-1,3-dimethyl-2-oxo-2,3-dihydro-1H-benzo[d]imidazol-5-yl)isoquinolin-3-yl)picolinamide]
2 | < 20 | > 1000 | CC(C)c1cc(N2CCCc3cc(-c4ccc(C(=O)NCc5ccc(-c6ccn(C7CCC(=O)NC7=O)n6)cc5)nc4)c(C(F)F)cc32)cc2c1n(C)c(=O)n2C (stereo not drawn) [Example A37, 5-(7-(Difluoromethyl)-1-(7-isopropyl-1,3-dimethyl-2-oxo-2,3-dihydro-1H-benzo[d]imidazol-5-yl)-1,2,3,4-tetrahydroquinolin-6-yl)-N-(4-(1-(2,6-dioxopiperidin-3-yl)-1H-pyrazol-3-yl)benzyl)picolinamide]
3 | < 20 | > 1000 | CC(C)c1cc(-c2cccc3cc(-c4ccc(C(=O)NCC#Cc5ccc6c(c5)ncn6C5CCC(=O)NC5=O)nc4)ncc23)cc2c1n(C)c(=O)n2C (stereo not drawn) [Example A38, N-(3-(1-(2,6-Dioxopiperidin-3-yl)-1H-benzo[d]imidazol-5-yl)prop-2-yn-1-yl)-5-(8-(7-isopropyl-1,3-dimethyl-2-oxo-2,3-dihydro-1H-benzo[d]imidazol-5-yl)isoquinolin-3-yl)picolinamide]
4 | > 80 | 1 to 9.9 | Cc1cc(-c2ccc(N(C)c3cc(C4=CCOCC4)c4c(c3)n(C)c(=O)n4C)cn2)cnc1C(=O)NCC#Cc1cccc(NC2CCC(=O)NC2=O)c1 (stereo not drawn) [Example A40, 5-((7-(3,6-dihydro-2H-pyran-4-yl)-1,3-dimethyl-2-oxo-2,3-dihydro-1H-benzo[d]imidazol-5-yl)(methyl)amino)-N-(3-(3-((2,6-dioxopiperidin-3-yl)amino)phenyl)prop-2-yn-1-yl)-5′-methyl-[2,3′-bipyridine]-6′-carboxamide]
5 | > 80 | 10 to 99 | Cc1cc(-c2ccc(N(C)c3cc(C(C)C)c4c(c3)n(C)c(=O)n4C)cc2C(F)F)cnc1C(=O)NCC#Cc1cccc(NC2CCC(=O)NC2=O)c1 (stereo not drawn) [Example A41, 5-(2-(difluoromethyl)-4-((7-isopropyl-1,3-dimethyl-2-oxo-2,3-dihydro-1H-benzo[d]imidazol-5-yl) (methyl)amino)phenyl)-N-(3-(3-((2,6-dioxopiperidin-3-yl)amino)phenyl)-prop-2-yn-1-yl)-3-methylpicolinamide]
6 | > 80 | 1 to 9.9 | Cc1cc(-n2ccc(N(C)c3cc(C(C)C)c4c(c3)n(C)c(=O)n4C)cc2=O)cnc1C(=O)NCC#Cc1cccc(NC2CCC(=O)NC2=O)c1 (stereo not drawn) [Example A42, N-(3-(3-((2,6-dioxopiperidin-3-yl)amino)phenyl)prop-2-yn-1-yl)-4-((7-isopropyl-1,3-dimethyl-2-oxo-2,3-dihydro-1H-benzo [d]imidazol-5-yl)(methyl)amino)-5′-methyl-2-oxo-2H-[1,3′-bipyridine]-6′-carboxamide]
7 | 60 to 79 | 100 to 999 | Cc1cc(-c2ccc(N(C)c3cc(C(C)C)c4c(c3)n(C)c(=O)n4C)cc2)cnc1C(=O)NCC#Cc1cccc(NC2CCC(=O)NC2=O)c1 (stereo not drawn) [Example A43, N-(3-(3-((2,6-dioxopiperidin-3-yl)amino)phenyl)prop-2-yn-1-yl)-5-(4-((7-isopropyl-1,3-dimethyl-2-oxo-2,3-dihydro-1H-benzo [d]imidazol-5-yl) (methyl)amino)phenyl)-3-methylpicolinamide]
8 | 60 to 79 | 100 to 999 | Cc1cc(-c2ccc(N(C)c3cc(C(C)C)c4c(c3)n(C)c(=O)n4C)cc2Cl)cnc1C(=O)NCC#Cc1cccc(NC2CCC(=O)NC2=O)c1 (stereo not drawn) [Example A44, 5-(2-chloro-4-((7-isopropyl-1,3-dimethyl-2-oxo-2,3-dihydro-1H-benzo[d]imidazol-5-yl)(methyl)amino)phenyl)-N-(3-(3-((2,6-dioxopiperidin-3-yl)amino)phenyl)prop-2-yn-1-yl)-3-methylpicolinamide]
9 | > 80 | 10 to 99 | Cc1cc(-c2ccc(N(C)c3cc(C(C)C)c4c(c3)n(C)c(=O)n4C)cc2C#N)cnc1C(=O)NCC#Cc1cccc(NC2CCC(=O)NC2=O)c1 (stereo not drawn) [Example A46, 5-(2-cyano-4-((7-isopropyl-1,3-dimethyl-2-oxo-2,3-dihydro-1H-benzo[d]imidazol-5-yl)(methyl)amino)phenyl)-N-(3-(3-((2,6-dioxopiperidin-3-yl)amino)phenyl)prop-2-yn-1-yl)-3-methylpicolinamide]
10 | > 80 | 10 to 99 | Cc1cc(-c2ncc(N(C)c3cc(C(C)C)c4c(c3)n(C)c(=O)n4C)cc2F)cnc1C(=O)NCC#Cc1cccc(NC2CCC(=O)NC2=O)c1 (stereo not drawn) [Example A47, N-(3-(3-((2,6-dioxopiperidin-3-yl)amino)phenyl)prop-2-yn-1-yl)-3-fluoro-5-((7-isopropyl-1,3-dimethyl-2-oxo-2,3-dihydro-1H-benzo [d]imidazol-5-yl)(methyl)amino)-5′-methyl-[2,3′-bipyridine]-6′-carboxamide]
11 | 60 to 79 | 10 to 99 | Cc1cc(-c2ccc(N(C)c3cc(C(C)C)c4c(c3)n(C)c(=O)n4C)cc2C(F)(F)F)cnc1C(=O)NCC#Cc1cccc(NC2CCC(=O)NC2=O)c1 (stereo not drawn) [Example A48, N-(3-(3-((2,6-dioxopiperidin-3-yl)amino)phenyl)prop-2-yn-1-yl)-5-(4-((7-isopropyl-1,3-dimethyl-2-oxo-2,3-dihydro-1H-benzo [d]imidazol-5-yl)(methyl)amino)-2-(trifluoromethyl)phenyl)-3-methylpicolinamide]
12 | > 80 | 10 to 99 | COc1cc(-c2ccc(N(C)c3cc(C(C)C)c4c(c3)n(C)c(=O)n4C)cn2)cnc1C(=O)NCC#Cc1cccc(NC2CCC(=O)NC2=O)c1 (stereo not drawn) [Example A49, N-(3-(3-((2,6-dioxopiperidin-3-yl)amino)phenyl)prop-2-yn-1-yl)-5-((7-isopropyl-1,3-dimethyl-2-oxo-2,3-dihydro-1H-benzo [d]imidazol-5-yl) (methyl)amino)-5′-methoxy-[2,3′-bipyridine]-6′-carboxamide]
13 | > 80 | 10 to 99 | Cc1cc(-c2cnc(N(C)c3cc(C(C)C)c4c(c3)n(C)c(=O)n4C)cn2)cnc1C(=O)NCC#Cc1cccc(NC2CCC(=O)NC2=O)c1 (stereo not drawn) [Example A50, N-(3-(3-((2,6-dioxopiperidin-3-yl)amino)phenyl)prop-2-yn-1-yl)-5-(5-((7-isopropyl-1,3-dimethyl-2-oxo-2,3-dihydro-1H-benzo [d]imidazol-5-yl)(methyl)amino)pyrazin-2-yl)-3-methylpicolinamide]
14 | 60 to 79 | 100 to 999 | Cc1cc(-c2ccc(N(c3cc(C(C)C)c4c(c3)n(C)c(=O)n4C)C(F)(F)F)cn2)cnc1C(=O)NCC#Cc1cccc(NC2CCC(=O)NC2=O)c1 (stereo not drawn) [Example A52, N-(3-(3-((2,6-dioxopiperidin-3-yl)amino)phenyl)prop-2-yn-1-yl)-5-((7-isopropyl-1,3-dimethyl-2-oxo-2,3-dihydro-1H-benzo [d]imidazol-5-yl) (trifluoromethyl)amino)-5′-methyl-[2,3′-bipyridine]-6′-carboxamide]
15 | < 20 | > 1000 | Cc1cc(-c2ccc(Nc3cc4c(c(C(C)C)n3)n(C)c(=O)n4C)cn2)cnc1C(=O)NCC#Cc1ccc2occ(C3CCC(=O)NC3=O)c2c1 (stereo not drawn) [Example A56, N-(3-(3-(2,6-dioxopiperidin-3-yl)benzofuran-5-yl)prop-2-yn-1-yl)-5-((4-isopropyl-1,3-dimethyl-2-oxo-2,3-dihydro-1H-imidazo[4,5-c]pyridin-6-yl)amino)-5′-methyl-[2,3′-bipyridine]-6′-carboxamide]
16 | > 80 | 1 to 9.9 | CC(C)c1cc(N(C)c2cnc(-c3ccc(C(=O)NCC#Cc4ccc5occ(C6CCC(=O)NC6=O)c5c4)nc3)cn2)cc2c1n(C)c(=O)n2C (stereo not drawn) [Example A59, N-(3-(3-(2,6-dioxopiperidin-3-yl)benzofuran-5-yl)prop-2-yn-1-yl)-5-(5-((7-isopropyl-1,3-dimethyl-2-oxo-2,3-dihydro-1H-benzo [d]imidazol-5-yl)(methyl)amino)pyrazin-2-yl)picolinamide]
17 | < 20 | > 1000 | Cc1cc(-c2ccc(N(C)c3cc4c(c(C(C)C)n3)n(C)c(=O)n4C)cn2)cnc1C(=O)NCC#Cc1ccc2occ(C3CCC(=O)NC3=O)c2c1 (stereo not drawn) [Example A60, N-(3-(3-(2,6-dioxopiperidin-3-yl)benzofuran-5-yl)prop-2-yn-1-yl)-5-((4-isopropyl-1,3-dimethyl-2-oxo-2,3-dihydro-1H-imidazo[4,5-c]pyridin-6-yl)(methyl)amino)-5′-methyl-[2,3′-bipyridine]-6′-carboxamide]
18 | > 80 | 1 to 9.9 | Cc1cc(-c2cc3cccc(-c4ccc5c(c4)n(C)c(=O)n5C)c3cn2)cnc1C(=O)NCC#Cc1ccc2occ([C@H]3CCC(=O)NC3=O)c2c1 [Example A62, (R)-5-(8-(1,3-dimethyl-2-oxo-2,3-dihydro-1H-benzo[d]imidazol-5-yl)isoquinolin-3-yl)-N-(3-(3-(2,6-dioxo-piperidin-3-yl)benzofuran-5-yl)prop-2-yn-1-yl)-3-methylpicolinamide]
